A short description of this data set: passive permeability, PAMPA, ADME assay (AID 1508612). The conditions noted are these: pH 7.4, 30.0 min, 50.0 µM. (In PAMPA a lipid-coated filter parts donor from acceptor wells.)

The structures appear in SMILES notation.

Take `CN(C)C(=O)c1nc(-c2ccc(S(C)(=O)=O)cc2)c2cnccn12`: the Papp came to 16.8 ×10⁻⁶ cm/s. For `NC(=O)C1CCN(c2nnc(-c3ccc(Br)cc3)s2)CC1` the value was 525 ×10⁻⁶ cm/s; for `CC(=O)Nc1nc(-c2ccc3c(c2)CCN3C(=O)c2ccccc2C)c(C)s1`, over 1000 ×10⁻⁶ cm/s. In the case of `CC(C)CC(=O)Nc1n[nH]c2c1CN(C(=O)C1CCN(C)CC1)C2(C)C`, the apparent permeability (Papp) is under 1 ×10⁻⁶ cm/s. Then `COc1ccc(-c2nc(CS(=O)CC(=O)N3CCC4(CC3)OCCO4)c(C)o2)cc1` (stereo unspecified), with 91.7 ×10⁻⁶ cm/s; and `Cc1ccccc1C(=O)N1CCc2cc(-c3csc(NC(=O)Cc4ccc5c(c4)OCO5)n3)ccc21`, with over 1000 ×10⁻⁶ cm/s; and `Clc1ccc2ncc(-c3cccc(NC4CCNCC4)n3)n2c1`, with 807 ×10⁻⁶ cm/s. For `CS(=O)(=O)Nc1cccc(-c2nccc(-n3ccnc3)n2)c1` the value was 355 ×10⁻⁶ cm/s; for `CCCCOc1ccc(CC(=O)NO)cc1`, 133 ×10⁻⁶ cm/s; for `C[S+](=O)([O-])c1ccc(-c2nc(C(=O)N3CCOCC3)n3ccccc23)cc1`, 180 ×10⁻⁶ cm/s. `Cc1ccccc1N(C)C1CN([S+](=O)([O-])c2cccc(C(F)(F)F)c2)C1` registered a Papp of 991 ×10⁻⁶ cm/s. The molecule `COc1ccc(CN2C(=O)[C@@H]3C[C@@H](CN3Cc3cccs3)Oc3ccccc32)cc1` showed an apparent permeability (Papp) of 900 ×10⁻⁶ cm/s. `COc1ccc(OC)c(-c2nnc3ccc(-c4ccc(OC)c(O[C@@H]5CCOC5)c4)nn23)c1` had an apparent permeability coefficient (Papp) of 877 ×10⁻⁶ cm/s. For `CC(=O)N1CCN(c2nc(-c3ccc(Br)cc3)cs2)CC1`, the Papp was 995 ×10⁻⁶ cm/s. The Papp values of the last two molecules are within 1.5-fold of each other. `CNC(=O)c1cc(Oc2ccc(NC(=O)Nc3ccc(Cl)c(C(F)(F)F)c3)c(F)c2)ccn1` yielded a Papp of under 1 ×10⁻⁶ cm/s. For `Cc1ccc(-c2cc(C(=O)NCc3cnn(C)c3)c3cc(Br)ccc3n2)cc1` the value was 24.2 ×10⁻⁶ cm/s; for `COc1ccccc1-n1cnc2cc(C(=O)N3CCCCC3)ccc21`, 385 ×10⁻⁶ cm/s; for `CC(C)CN(C[C@@H](O)[C@H](Cc1ccccc1)NC(=O)O[C@@H]1CO[C@H]2OCC[C@H]21)S(=O)(=O)c1ccc(N)cc1`, 192 ×10⁻⁶ cm/s. Then `CNc1oc(-c2cccc3ccccc23)nc1C#N`, with 723 ×10⁻⁶ cm/s; and `NC(=O)C1CCN(c2nccc(-c3ccc4c(c3)OCCO4)n2)CC1`, with 289 ×10⁻⁶ cm/s. As to `CCN(CC)C(=O)c1ccc(O)c(OC)c1`, the Papp turned out to be 482 ×10⁻⁶ cm/s. Compared with the last molecule, the Papp is about 1.7-fold higher. For `Fc1cc(Nc2nc(-c3ccncc3)nc3ccccc23)ccc1-c1cncnc1` the value was 7.26 ×10⁻⁶ cm/s.

For the molecule `CCOC(=O)C1CCN(C(=O)C2(NC(=O)Nc3ccc(F)cc3F)CCCCC2)CC1`, the Papp was found to be 177 ×10⁻⁶ cm/s. For `CCOC(=O)C1CCN(C(=O)C2(NC(=O)Nc3ccccc3Cl)CCCC2)CC1` the value was 229 ×10⁻⁶ cm/s.

In the case of `Fc1ccc(-c2csc3ncnc(Sc4nnnn4C4CC4)c23)cc1`, the apparent permeability (Papp) worked out at 834 ×10⁻⁶ cm/s. Then `COc1ccc2[nH]c(=O)c(-c3noc(-c4ccccc4)n3)cc2c1`, with 760 ×10⁻⁶ cm/s; and `Cc1ccc(-n2ncc3c(NCCCn4ccnc4)ncnc32)cc1Cl`, with over 1000 ×10⁻⁶ cm/s; and `O=C(N/N=C/c1ccc(Sc2ccccn2)o1)c1ccncc1`, with 76.8 ×10⁻⁶ cm/s. Then `Cc1nnc2n1-c1ccc(Cl)cc1C(c1ccccc1)=NC2`, with 125 ×10⁻⁶ cm/s; and `N#CC1(c2ccc(NC(=O)c3cccnc3NCc3ccncc3)cc2)CCCC1`, with over 1000 ×10⁻⁶ cm/s. `COC(=O)CNC(=O)c1nc(-c2ccc(Cl)nc2)c2cnccn12`: the Papp worked out at 103 ×10⁻⁶ cm/s. Then `Cc1cnc(-c2ccccc2C(F)F)nc1NCC1CN(c2cnccn2)C1`, with over 1000 ×10⁻⁶ cm/s; and `COc1cccc(OC)c1C(=O)Nc1ccccc1C(=O)Nc1cccc(C(F)(F)F)c1`, with 899 ×10⁻⁶ cm/s; and `Cc1cc(-c2nnc3n2CCCCC3)c(C)n1-c1ccc(C(F)(F)F)cc1`, with over 1000 ×10⁻⁶ cm/s. On to `Cc1nc2ccc(C(=O)N3CCC4(CC3)CC(=O)c3c(cnn3C(C)C)C4)cc2[nH]1`, for which the Papp came to 16.5 ×10⁻⁶ cm/s. Then `CC(C)(C)C1CCc2[nH]c3ccccc3c(=O)c2C1` (stereo unspecified), with 356 ×10⁻⁶ cm/s. Then `CCOC(=O)c1ccc(N2C(=O)c3[nH]nc(-c4ccc(OC)cc4)c3C2c2ccc(C)cc2)cc1` (stereo unspecified), with 17.7 ×10⁻⁶ cm/s; and `CN1CCN(CCCN2c3ccccc3Sc3ccc(S(=O)(=O)N(C)C)cc32)CC1`, with over 1000 ×10⁻⁶ cm/s. Take `Fc1ccc(-c2nc(-c3ccncc3)nc3ccccc23)cc1F`: the Papp was over 1000 ×10⁻⁶ cm/s. In the case of `CC(C)(O)/C=C\C(=O)[C@](C)(O)[C@H]1[C@H](O)C[C@]2(C)[C@@H]3CC=C4[C@@H](C=C(O)C(=O)C4(C)C)[C@]3(C)C(=O)C[C@@]12C`, the Papp was determined as 184 ×10⁻⁶ cm/s. As for `CCOc1ccc(CCNC(=O)c2cc3sccc3n2Cc2ccccn2)cc1OCC`, the Papp is over 1000 ×10⁻⁶ cm/s. Molecule `CCc1ccc(NC(=O)c2[nH]c(C)c(C(C)=O)c2C)cc1[S+](=O)([O-])Nc1ccccc1C#N` gave an apparent permeability (Papp) of 74.2 ×10⁻⁶ cm/s. In turn, `COCCNC(=O)c1ccc(Cn2c(=S)[nH]c3cc4c(cc3c2=O)OCO4)cc1` displayed an apparent permeability (Papp) of 108 ×10⁻⁶ cm/s.

`CCN(CC)S(=O)(=O)c1ccc(N2CCOCC2)c(NC(=O)c2[nH]c(C)c(C(C)=O)c2C)c1` had an apparent permeability coefficient (Papp) of over 1000 ×10⁻⁶ cm/s.

Molecule `NC(=O)C1CCN(c2ncc(-c3ccc4c(c3)OCCO4)s2)CC1` yielded an apparent permeability (Papp) of 710 ×10⁻⁶ cm/s. On to `O=C(Nc1nc(-c2ccccc2)cs1)c1ccncc1NS(=O)(=O)c1ccccc1Cl`, for which the Papp is over 1000 ×10⁻⁶ cm/s. For `N#Cc1ccc(-c2ccc(CNc3ccc(C4CCNCC4)cc3)o2)cc1` the value was 459 ×10⁻⁶ cm/s. Then `CCOc1cc2ncc(C#N)c(Nc3ccc(OCc4ccccn4)c(Cl)c3)c2cc1NC(=O)C=CCN(C)C`, with under 1 ×10⁻⁶ cm/s; and `Cc1ccc(-n2nc3c(=O)n(CCCC(=O)NCc4ccc(F)cc4)nc(C)c3c2C)cc1`, with 842 ×10⁻⁶ cm/s. In the case of `CC(=O)c1c(C)[nH]c(C(=O)Nc2cccc(S(=O)(=O)N3CCCCCC3)c2)c1C`, the Papp was over 1000 ×10⁻⁶ cm/s. For `c1cc(-c2cc(-c3ccncc3)c3cncn3c2)c2cc[nH]c2c1`, the apparent permeability (Papp) is 236 ×10⁻⁶ cm/s.

For the molecule `COc1ccc(CCNC(=O)Cn2c(=O)c3cccn3c3ccc(F)cc32)cc1OC`, the Papp came to 442 ×10⁻⁶ cm/s. `CC(C)N(CCCNC(=O)Nc1ccc(C(C)(C)C)cc1)C[C@H]1O[C@@H](n2ccc3c(N)ncnc32)[C@H](O)[C@@H]1O`: the apparent permeability coefficient (Papp) stood at 10.7 ×10⁻⁶ cm/s. On to `COc1cc(-c2ccnc3c2c(C)nn3-c2cccc(C(F)(F)F)c2)ccc1O`, for which the Papp amounted to 93.1 ×10⁻⁶ cm/s. This Papp lies about 8.7-fold higher than the previous one. `COc1ccccc1C(=O)Nc1nc2nc(C)cc(=O)n2[nH]1` gave a Papp of 7.8 ×10⁻⁶ cm/s. This Papp is about 12-fold lower than that of the molecule before. Consider `Nc1ncnc2c1ncn2[C@H]1O[C@@H](CO)[C@@H](O)[C@H]1N`, for which the Papp amounted to 2.99 ×10⁻⁶ cm/s. For `O=C(Nc1ncnc2sc3c(c12)CCCCC3)c1ccco1` the value was over 1000 ×10⁻⁶ cm/s; for `NC(=O)c1cnc(N[C@@H]2CCCC[C@@H]2N)nc1Nc1cccc(-n2nccn2)c1`, 11.7 ×10⁻⁶ cm/s.

`CC1(C)CCC(c2ccc(Cl)cc2)=C(CN2CCN(c3ccc(C(=O)NS(=O)(=O)c4ccc(N[C@H](CCN5CCOCC5)CSc5ccccc5)c(S(=O)(=O)C(F)(F)F)c4)cc3)CC2)C1` returned a Papp of 1.1 ×10⁻⁶ cm/s. For `O=C(O)c1cccc(-c2noc(-c3ccccc3F)n2)c1` the value was 111 ×10⁻⁶ cm/s; for `Cc1ccnc(NC(=S)N2CCCC(Nc3cccc(C(F)(F)F)c3)C2)c1` (stereo unspecified), over 1000 ×10⁻⁶ cm/s; for `Cc1ccc2c(c1)N(S(=O)(=O)c1cc(-c3onc(C)c3C)ccc1C)CCO2`, 664 ×10⁻⁶ cm/s. For `CN(C(=O)COC(=O)c1csc(NCc2ccccc2)n1)c1ccccc1` the value was over 1000 ×10⁻⁶ cm/s; for `Cc1ccc2nc(-c3ccccn3)c(Nc3ccccc3C)n2c1`, over 1000 ×10⁻⁶ cm/s; for `Cc1noc(C)c1S(=O)(=O)Nc1cnccc1C(=O)Nc1nc(-c2ccccc2)cs1`, 339 ×10⁻⁶ cm/s. With `O=C(NCC1CCN(Cc2cccc(Cl)c2)CC1)Nc1ccc(F)c(Cl)c1`, the Papp was over 1000 ×10⁻⁶ cm/s.

Regarding `NC(=O)C1CCN(c2nc(-c3ccc4occc(=O)c4c3)cs2)CC1`, the apparent permeability coefficient (Papp) was determined as 106 ×10⁻⁶ cm/s. In turn, `Cc1ccc(C(=O)Nc2nc3nc(C)cc(=O)n3[nH]2)cc1` displayed a Papp of under 1 ×10⁻⁶ cm/s. For `CCOc1ccc(CCNC(=O)c2cc3c(s2)CCC3)cc1OCC` the value was over 1000 ×10⁻⁶ cm/s; for `Cc1ccc(S(=O)(=O)Nc2ccc(F)cc2C(=O)Nc2nc(-c3ccccc3)cs2)cc1`, 21.4 ×10⁻⁶ cm/s; for `COC(=O)[C@@]12OC[C@]34[C@H]([C@@H](O)[C@@H]1O)[C@@]1(C)CC(=O)C(O)=C(C)[C@@H]1C[C@H]3OC(=O)[C@H](OC(=O)/C=C(\C)C(C)C)[C@@H]24`, 120 ×10⁻⁶ cm/s. The molecule `CCOC(=O)c1c(NC(=O)CN2CCCCC2)sc2c1CCN(C(=O)OCC)C2` gave an apparent permeability coefficient (Papp) of over 1000 ×10⁻⁶ cm/s. For `O=c1c(-c2ccc(O)cc2)coc2cc(O)ccc12` the value was under 1 ×10⁻⁶ cm/s. `COc1ccc(NC(=O)c2[nH]c(C)c(C(C)=O)c2C)cc1S(=O)(=O)N1CCCCCC1`: the apparent permeability coefficient (Papp) amounted to 989 ×10⁻⁶ cm/s.

The molecule `CCN1C(=O)c2ccccc2S(=O)c2ccc(C(=O)NCc3ccc(OC)cc3)cc21` (stereo unspecified) showed an apparent permeability (Papp) of 883 ×10⁻⁶ cm/s.

`COc1cc(C2c3c(oc4cc(C)c(C)cc4c3=O)C(=O)N2CCCN2CCOCC2)ccc1O` (stereo unspecified) registered an apparent permeability (Papp) of 118 ×10⁻⁶ cm/s. Against the preceding molecule, the Papp is about 7.5-fold lower. `CCOc1ccc(CCNC(=O)c2cc3ccccc3o2)cc1OCC` registered an apparent permeability (Papp) of over 1000 ×10⁻⁶ cm/s. For `CC[C@@](C)(Nc1ccnc(-c2c[nH]c3ncccc23)n1)C(=O)NCC(F)(F)F` the value was 612 ×10⁻⁶ cm/s. For the molecule `CCOC(=O)c1ccc(NC2CCCCC2)c(N)c1`, the Papp was over 1000 ×10⁻⁶ cm/s. `NC(=O)C1CCN(c2nccc(Cl)n2)CC1` gave an apparent permeability (Papp) of 37.3 ×10⁻⁶ cm/s.

`COc1ccc2c(c1)/C(=C/c1cnc[nH]1)C(=O)N2`: the apparent permeability (Papp) worked out at 220 ×10⁻⁶ cm/s.

Molecule `O=C(Cc1cccs1)NCc1nnc2ccc(-c3ccccc3)nn12` returned a Papp of 226 ×10⁻⁶ cm/s. The Papp values of the last two molecules are within 1.5-fold of each other. Then `FC(F)(F)c1cc(-c2ccc(CNc3nc(-c4ccccc4C(F)(F)F)nc4ccsc34)cc2)ccn1`, with 455 ×10⁻⁶ cm/s; and `COc1ccc(C2Nc3ccccc3C(=O)N2Cc2cccnc2)cc1COc1c(C)cc(NC(C)=O)cc1C` (stereo unspecified), with over 1000 ×10⁻⁶ cm/s. For `CN(C)[C@@H]1CCN(c2cccc(Nc3nn4c(=O)c5ccccc5nc4s3)c2)C1` the value was 125 ×10⁻⁶ cm/s; for `CCN1C(=O)c2ccccc2S(=O)c2ccc(NC(=O)Cc3ccc(OC)cc3)cc21` (stereo unspecified), over 1000 ×10⁻⁶ cm/s.

The molecule `CN(C)CCCN1c2ccc(O)cc2Sc2ccc(Cl)cc21` yielded an apparent permeability (Papp) of over 1000 ×10⁻⁶ cm/s.

For the molecule `Oc1ccc(-c2nc(C3CC3)nc3c2CCN(Cc2ccc(F)cc2)CC3)cc1`, the Papp was over 1000 ×10⁻⁶ cm/s. For `c1cn2cc(-c3ccc4cn[nH]c4c3)nc(Nc3ccc(N4CCOCC4)cc3)c2n1` the value was 391 ×10⁻⁶ cm/s; for `Fc1ccc(Cl)cc1-c1nc(Nc2ccncc2)c2nccnc2n1`, over 1000 ×10⁻⁶ cm/s. Consider `O=C(Nc1ccc(S(=O)(=O)Nc2nc(-c3ccccc3)cs2)cc1)c1ccc2ccccc2c1`, for which the apparent permeability coefficient (Papp) was under 1 ×10⁻⁶ cm/s.

One may read the Papp as a coefficient for how fast a substance crosses the barrier. Read a low Papp as slow passage.

Source of the values: PubChem BioAssay AID1508612.
